We go through two compounds from patent EP0869784B1, “INHIBITION OF FATTY ACID SYNTHASE AS A MEANS TO REDUCE ADIPOCYTE MASS” (THE JOHNS HOPKINS UNIVERSITY, priority 1995, dated 1997).

Data set [1] in a line: C-75-induced weight loss in nude mice inoculated with OVCAR-3 cells (Examples 8 and 9). Format: in vivo. The method, then:
(§1) 20 nude mice (Harland) mice were inoculated on Day 0 with 0.1 ml packed OVCAR-3 cells. 10 mice received transisomer of C-75 (20 mg/kg) in 100 ul RPMI on days 1, 3, and 5. 10 mice received 100 ul of RPMI i.p. alone on days 1, 3, and 5. Animals were weighed on days indicated on Figure 6. Animals were sacrificed when 30% increase in body weight occurred from tumor growth.
(§2) This indicates a dose response to the anti-tumor effect of C-75.

Data set [2] relates to HL60 human promyelocytic leukemia cells. Kind of data set: [U14C]-acetate incorporation by HL60 cells. To be noted: 10 µg/ml, time dependent, Figure 3. Format: cell-based. The method, then:
(§3) HL60 cells were labeled with [U^14C]-acetate in the presence of 10 µg/ml C-75; cells were incubated in 5% CO2 at 37°C. Results are plotted in Figure 3; each time point was performed in triplicate, error bars are the standard deviation.

In data set [3] the test system is OVCAR-3 cells. The data set is described as follows: Survival of nude mice inoculated with OVCAR-3 cells (Examples 8 and 9). Format: in vivo. The method, then: as §1, §2
Data set [4] is described as follows: C-75-induced weight loss in OVCAR-3 xenograft mice, pilot study (Example 6). Format: in vivo. To be noted: 60 mg/kg on days 1, 3, and 5. Here is the method: C-75 was tested in vivo in a pilot study against the OVCAR-3 xenograft model of Example 4. Ten mice were inoculated intraperitoneally with 10^7 OVCAR-3 cells. The mice were treated on days 1, 3, and 5 with either DMSO or 60 mg/kg C-75. Results are plotted in Figure 4. C-75 treated mice experienced a 20% reduction in weight loss by day eight. Animals regained their original weight by day 15, increased their weight to nearly 110% of original body weight by day 24, and achieved original body weight by day 34.

In data set [5] the test system is HL60 human promyelocytic leukemia cells. Kind of data set: HL60 viable cell count with or without palmitate (fatty acid rescue). Format: cell-based. To be noted: 2.5 ug/ml; palmitate 80 micromolar; viable cells by trypan blue exclusion, Figure 5. Here is the method:
Suitable FAS inhibitors may be identified by a simple test exemplified in Example 7, and in U.S. patent application 08/188,425. Generally, this test uses a tumor cell line in which an FAS inhibitor, typically cerulenin, is cytotoxic. Such cell lines include SKBR-3, ZR-75-1, and preferably HL60. Suitable FAS inhibitors will inhibit growth of such cell lines, but the cells are rescued by exogenous supply of the product of the FAS enzyme (fatty acid). When cell growth is measured in the presence and absence of exogenous fatty acid (e.g., palmitate or oleate), inhibition by specific FAS inhibitors is relieved by the fatty acid.
200,000 HL60 cells were plated in 24-well plates in 1 ml fatty acid free medium with or without palmitate (80 micromolar, complexed to fatty acid free albumin 0.2:1). Cells were treated with 2.5 ug/ml of C-75. Cells were incubated in 5% CO2 at 37°C and viable cells were counted with trypan blue exclusion at 24, […], 72, and 96 hours. Results are plotted in Figure 5; each time point was performed in triplicate, error bars are the standard deviation. […] Note that palmitate alone causes some suppression of HL60 proliferation.

For data set [6], the target named is FAS (Homo sapiens, UniProt P49327). Kind of data set: FAS activity in hypotonic lysate of OVCAR-3 ascites cells (malonyl-CoA dependent oxidation of NADPH at 340 nm). Format: biochemical. The text has this: Compounds which inhibit FAS can be identified by testing the ability of a compound to inhibit fatty acid synthase activity using purified enzyme. Fatty acid synthase activity can be measured spectrophotometrically based on the oxidation of NADPH, or radioactively by measuring the incorporation of radiolabeled acetyl- or malonyl-CoA. (Dils, et al, Methods Enzymol, 35:74-83). FAS inhibitors are exemplified in U.S. patent application 08/188,425 and International patent publication WO 94/02108, both of which are incorporated herein by reference.
Sequence of FAS (P49327 whole entry): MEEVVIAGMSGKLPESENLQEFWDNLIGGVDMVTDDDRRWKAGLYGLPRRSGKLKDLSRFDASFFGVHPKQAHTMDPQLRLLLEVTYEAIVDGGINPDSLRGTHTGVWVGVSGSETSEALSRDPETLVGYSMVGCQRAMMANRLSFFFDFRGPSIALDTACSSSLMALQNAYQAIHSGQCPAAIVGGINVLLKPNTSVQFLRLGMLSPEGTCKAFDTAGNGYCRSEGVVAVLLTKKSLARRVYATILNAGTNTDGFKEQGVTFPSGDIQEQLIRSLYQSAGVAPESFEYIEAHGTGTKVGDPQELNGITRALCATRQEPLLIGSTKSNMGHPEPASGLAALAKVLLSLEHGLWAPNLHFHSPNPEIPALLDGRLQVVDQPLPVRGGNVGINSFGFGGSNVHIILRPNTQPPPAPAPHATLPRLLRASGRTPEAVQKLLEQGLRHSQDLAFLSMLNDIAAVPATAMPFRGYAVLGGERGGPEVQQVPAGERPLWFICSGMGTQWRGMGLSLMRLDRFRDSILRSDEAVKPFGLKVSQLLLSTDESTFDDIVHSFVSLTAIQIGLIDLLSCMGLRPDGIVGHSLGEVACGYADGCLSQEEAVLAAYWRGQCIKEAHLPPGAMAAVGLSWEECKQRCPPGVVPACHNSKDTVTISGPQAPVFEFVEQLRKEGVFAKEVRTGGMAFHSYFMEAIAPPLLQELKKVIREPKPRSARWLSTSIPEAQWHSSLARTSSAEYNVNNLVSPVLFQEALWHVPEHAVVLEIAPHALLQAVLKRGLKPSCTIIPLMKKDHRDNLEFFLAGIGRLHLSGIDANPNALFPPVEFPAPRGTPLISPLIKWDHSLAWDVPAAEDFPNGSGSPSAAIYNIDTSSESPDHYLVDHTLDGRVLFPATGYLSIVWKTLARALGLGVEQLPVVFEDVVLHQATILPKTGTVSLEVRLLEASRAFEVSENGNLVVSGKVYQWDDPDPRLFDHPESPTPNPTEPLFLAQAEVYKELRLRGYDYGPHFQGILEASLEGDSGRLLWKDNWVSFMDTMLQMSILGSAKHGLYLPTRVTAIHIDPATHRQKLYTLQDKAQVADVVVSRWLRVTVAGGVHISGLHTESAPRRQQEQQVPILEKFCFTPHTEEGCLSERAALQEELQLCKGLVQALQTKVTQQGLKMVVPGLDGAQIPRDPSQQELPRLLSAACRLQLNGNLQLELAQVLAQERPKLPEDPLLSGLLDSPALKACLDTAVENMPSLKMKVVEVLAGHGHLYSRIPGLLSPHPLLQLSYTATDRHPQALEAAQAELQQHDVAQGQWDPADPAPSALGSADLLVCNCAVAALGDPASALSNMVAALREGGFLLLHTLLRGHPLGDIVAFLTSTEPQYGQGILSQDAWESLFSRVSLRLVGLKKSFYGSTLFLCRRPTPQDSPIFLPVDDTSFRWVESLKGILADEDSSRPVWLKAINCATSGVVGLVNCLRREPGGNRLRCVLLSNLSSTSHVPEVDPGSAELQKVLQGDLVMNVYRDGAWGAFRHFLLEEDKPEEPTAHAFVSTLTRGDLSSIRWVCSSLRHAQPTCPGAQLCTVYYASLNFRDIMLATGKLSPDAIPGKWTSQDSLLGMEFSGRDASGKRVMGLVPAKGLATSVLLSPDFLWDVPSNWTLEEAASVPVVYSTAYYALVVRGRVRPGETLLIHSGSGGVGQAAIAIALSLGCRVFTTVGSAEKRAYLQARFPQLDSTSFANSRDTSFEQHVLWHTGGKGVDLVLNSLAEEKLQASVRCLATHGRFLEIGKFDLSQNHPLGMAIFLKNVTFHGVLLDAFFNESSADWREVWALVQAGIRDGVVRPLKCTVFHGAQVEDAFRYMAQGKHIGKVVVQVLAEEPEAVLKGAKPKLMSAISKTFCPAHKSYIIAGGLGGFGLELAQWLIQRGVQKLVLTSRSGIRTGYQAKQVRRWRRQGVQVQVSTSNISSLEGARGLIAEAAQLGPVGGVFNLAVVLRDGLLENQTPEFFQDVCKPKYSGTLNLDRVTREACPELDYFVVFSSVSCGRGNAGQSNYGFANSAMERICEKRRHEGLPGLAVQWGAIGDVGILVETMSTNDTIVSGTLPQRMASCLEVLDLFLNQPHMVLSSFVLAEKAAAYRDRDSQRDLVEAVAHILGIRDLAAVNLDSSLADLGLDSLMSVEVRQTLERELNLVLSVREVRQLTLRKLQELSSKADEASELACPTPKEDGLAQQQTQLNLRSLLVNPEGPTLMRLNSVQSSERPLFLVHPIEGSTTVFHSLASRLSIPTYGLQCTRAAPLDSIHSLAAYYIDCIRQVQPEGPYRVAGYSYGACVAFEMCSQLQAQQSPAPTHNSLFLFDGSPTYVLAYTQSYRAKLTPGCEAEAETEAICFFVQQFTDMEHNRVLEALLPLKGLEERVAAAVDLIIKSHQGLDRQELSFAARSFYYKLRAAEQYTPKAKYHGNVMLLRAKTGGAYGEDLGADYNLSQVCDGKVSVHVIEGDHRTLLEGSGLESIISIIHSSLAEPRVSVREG

Data set [7] has as its system hepatic fatty acid synthesis. Kind of data set: In vivo metabolic labeling with [U-3H]-acetate, liver fatty acid synthesis. More on the design: species or system mice. The method, then:
(§4) Fatty acid synthesis was measured using metabolic labeling in vivo with [U-^3H]-acetate as described in Pizer, et al., 1996, Cancer Res., 56:1189-1193.
Thus, the reversible cerulenin-induced weight loss may be the result of fatty acid synthesis inhibition as well as decreased appetite in the mice.
as §3

The subject of data set [8] is OVCAR-3 ascites tumor fatty acid synthesis. Kind of data set: In vivo metabolic labeling with [U-3H]-acetate, tumor fatty acid synthesis. On the set-up: species or system mice. Here is the method: as §4
Data set [9] in a line: Cerulenin-induced weight loss in athymic nude mice (Example 2), with necropsy from a parallel experiment. Format: in vivo. Here is the method:
Athymic mice received 60 mg/kg cerulenin i.p. in 25% DMSO/saline or vehicle alone each day for 1 week. The animal weights were recorded every two days up to day 15. Average animal weight for both groups of mice is plotted against treatment day in Figure 1. Error bars represent standard error of the mean. […] In addition there was a 28% reduction of feces mass in the cerulenin-treated group consistent with deceased food intake.

Data set [10] in a line: Half life of the drug in ascites. More on the design: species or system mice. To be noted: mouse, in vivo, ip.
Data set [11] can be described thus: Cerulenin-induced weight loss in nude mice with OVCAR-3 xenografts (Example 3). Format: in vivo, Athymic mice. To be noted: 80 mg/kg i.p. for 1 week. The method, then: Cerulenin was administered as described in Example 2 above to mice which received 10^7 OVCAR-3 human ovarian cancer cells. Athymic mice received 0.1 ml of packed NIH-OVCAR-3 cells (approximately […]) intraperitoneally on treatment day 0. Beginning on day 1, treated mice received 80 mg/kg cerulenin i.p. in 25% DMSO/saline for 1 week, while untreated mice received vehicle alone. […] Weight loss constitutes the major toxicity observed during fatty acid synthesis inhibition therapy with cerlenin; the mice regained inception body mass within 10 days following treatment.

Where [12] appears, read: 60 mg/kg i.p. each day for 1 week.

With `C=C1C(=O)O[C@@H](CCCCCCCC)[C@@H]1C(=O)O` (relative stereo) [Example C-75, trans-Tetrahydro-3-methylene-2-oxo-5-n-octyl-4-furancarboxylic acid], the “weight loss in mice” value in [1] (20 mg/kg on days 1, 3, and 5, Figure 6) is “causes weight loss”. The “average maximum weight loss” value in data set [1] (only one dose, on day 3) is “about 3 grams”. The “reduction in fatty acid synthesis (label incorporation into phospholipids)” value in data set [2] is given as “nearly a three-fold reduction”. In addition, the “survival of the xenograft” value in data set [3] (20 mg/kg on days 1, 3, and 5, p=0.001 Wilcoxon and Mantel) is given as “increased survival”. In data set [3] (only one dose, wilcoxon p=0.56, Mantel p=0.52), the survival entry is “trend showing increased survival, but it was not statistically significant”. In addition, in data set [4], the “day by which original body weight was achieved again after the increase” value was not above 34 days and the “day by which original weight was regained” value is not above 15 days. For the same compound, the “weight relative to original body weight” value in [4] (by day 24) is approximately 110%. This compound also registered a body weight loss in [4] (by day eight) of 20%. Also, in data set [5], the “rescue from growth inhibition by exogenous fatty acid” value is recorded as “palmitate rescues HL60 cells from C-75”. For the same compound, in data set [6] (50 µg/ml, 37 °C, 180 min), the “reduction of FAS activity compared to control lysate” value was determined as 3 fold. The compound also displayed an FAS activity in data set [6] (50 µg/ml, 37 °C, 180 min, control 5.6) of 1.8 nM NADPH oxidized/min. Besides, the “effect of incubation at 4°” value in [6] (incubation at 4°) was “abolishes the inhibitory effect”. In addition, in [7] (pilot in vivo metabolic labeling studies), the “reduction of [U-3H] acetate incorporation into fatty acids in mouse liver” value was 30%.
For `C/C=C/C/C=C/CCC(=O)[C@H]1O[C@H]1C(N)=O` [cerulenin], in data set [8] (high dose 6mg/mouse versus standard dose 2mg/mouse), the “inhibition with high dose over standard dose” value was “No augmentation of inhibition”. For the same compound, the “reduction of OVCAR-3 ascites tumor fatty acid synthesis” value in data set [8] (intraperitoneal administration as in Example 3) stood at 43%. In addition, in data set [9] (setting [12]), the Water intake entry is listed as “not appreciable altered” and the “reduction of feces mass” value was 28%. Further, the “weight relative to original weight” value in data set [9] (60 mg/kg i.p. each day for 1 week, by day 14) was found to be 96%. Besides, in [9] (60 mg/kg i.p. each day for 1 week, by day eight), the “average loss of weight” value is 28%. Also, the “Observation of the mice (activity)” value in data set [9] (during the period of maximal weight loss) is reported as “normal activity”. Moreover, in data set [9] (necropsy, parallel experiment), the “Liver, microscopically” value is “unremarkable without necrosis or inflammation” and the “muscle mass, histologically” value is reported as “no decrease in muscle mass was detected histologically”. Moreover, the “Necropsy: fat deposits” value in data set [9] (parallel experiment) is “markedly decreased subcutaneous fat and abdominal fat deposits”. Besides, the half-life (commonly how long it takes for the measured level to halve) in data set [10] is less than 15 min. In addition, in data set [11], the “time to regain inception body mass following treatment” value was not above 10 days and the “urinalysis, diabetogenic effect” value is listed as “failed to demonstrate any diabetogenic effect”. Moreover, in data set [11] (during the treatment period), the “mean weight loss of original body mass” value came out at 25%. Also, the “effect on mean hepatic fatty acid synthesis” value in data set [7] (mice with OVCAR-3 ascites tumor, intraperitoneal administration) is reported as “no effect”. Besides, in data set [7] (mice without tumor, parallel experiments), the “inhibition of fatty acid synthesis in liver” value is reported as approximately 50%.
